{"source": "patent US10036068B1", "about": "“Diagnosis, prognosis, and treatment of myocardial infarction” (Vanderbilt University, priority 2012, dated 2018)", "assay_type_in_all_cases": "cell-based", "key": {"[1]": {"system": "human platelet", "assay": "PGE2 effect on human platelet aggregation and dense granule release, light transmission aggregometry", "excerpt": "(§1) This Examples describes a study conducted to characterize the regulation of thromboxane-dependent human platelet activation by PGE2, and particularly nanomolar concentrations of PGE2. Platelets were collected from individuals and studied by light transmission aggregometry. Next, it was observed how low nanomolar concentrations of PGE2 effect aggregation and dense granule release induced by sub-maximal concentrations of an agonist of the thromboxane receptor (U46,619), thrombin, collagen, and ADP."}, "[2]": {"system": "human platelet", "assay": "PGE2 effect on human platelet aggregation and dense granule release, light transmission aggregometry", "conditions": "agonist concentrations producing full activation of the platelets (max); even micromolar PGE2; FIG. 1"}, "[3]": {"target": "T1, thromboxane receptor (Homo sapiens, UniProt P21731)", "T1 construct": "Platelets were collected from individuals and studied by light transmission aggregometry; endogenous in cells; host or cells: human platelets from responder and non-responder individuals", "T1 sequence (P21731 1-343)": "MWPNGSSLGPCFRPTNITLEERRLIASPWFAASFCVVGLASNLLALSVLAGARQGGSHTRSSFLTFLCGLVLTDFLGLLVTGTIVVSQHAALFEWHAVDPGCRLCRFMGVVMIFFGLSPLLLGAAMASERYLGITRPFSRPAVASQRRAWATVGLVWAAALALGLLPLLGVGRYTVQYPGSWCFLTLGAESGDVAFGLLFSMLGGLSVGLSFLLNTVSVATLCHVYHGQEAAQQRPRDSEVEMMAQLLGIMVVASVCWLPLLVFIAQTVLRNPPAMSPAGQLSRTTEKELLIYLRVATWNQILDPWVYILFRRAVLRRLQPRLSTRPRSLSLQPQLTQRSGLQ", "assay": "U46,619 dose-response (aggregation, ATP release) in responder and non-responder samples", "conditions": "responders vs non-responders; FIG. 4", "excerpt": "FIG. 4 includes plots of maximal aggregation (left) and ATP release (right) as a function of U46,610 concentration for both responder and non-responder individuals, and showing that there is little to no difference in U46,619 dose-response between the different phenotypic groups.\nas §1\nSamples from responders and non-responders were also exposed to different doses of U46,619."}}}
{"smiles": "CCCCC[C@H](O)/C=C/[C@H]1[C@H](O)CC(=O)[C@@H]1C/C=C\\CCCC(=O)O", "note": "[PGE2, prostaglandin E2]", "values": [{"measurement": "individuals with strong inhibition of platelet activity in response to PGE2", "setting": "[1]; 76 individuals, FIG. 2", "value": "approximately 28%"}, {"measurement": "individuals without significant inhibition of platelet aggregation in response to PGE2 (non-responders)", "setting": "[1]; 76 individuals, FIG. 2", "value": 55, "unit": "%"}, {"measurement": "partial responders to PGE2", "setting": "[1]; 76 individuals, FIG. 2", "value": 17, "unit": "%"}, {"measurement": "effect on ADP-induced aggregation", "setting": "[1]; FIG. 5", "value": "no effect"}, {"measurement": "effect on U46,610 aggregation", "setting": "[1]; FIG. 5", "value": "did have an effect"}, {"measurement": "effect on collagen-induced aggregation", "setting": "[1]; FIG. 5", "value": "no effect"}, {"measurement": "individuals in whom PGE2 affected the timing but not the final magnitude of aggregation (partial responders)", "setting": "[1]; nanomolar PGE2", "value": "approximately 31%"}, {"measurement": "individuals in whom PGE2 did not have detectable effects (nonresponders)", "setting": "[1]; nanomolar PGE2", "value": "approximately 42%"}, {"measurement": "individuals in whom PGE2 inhibits platelet aggregation (responders)", "setting": "[1]; nanomolar PGE2, aggregation induced by U46,619 and PAR4-AP", "value": "approximately 26%"}, {"measurement": "aggregation and dense granule release induced by sub-maximal U46,619 and thrombin", "setting": "[1]; nanomolar PGE2, responder populations, FIG. 3", "value": "capable of preventing aggregation and dense granule release"}, {"measurement": "effect on aggregation or granule release", "setting": "[2]", "value": "did not affect either aggregation or granule release"}]}
{"smiles": "CCCCC[C@H](O)/C=C/[C@@H]1[C@@H](C/C=C\\CCCC(=O)O)[C@H]2CO[C@@H]1C2", "note": "[U46,619]", "values": [{"measurement": "difference in U46,619 dose-response between phenotypic groups", "setting": "[3]", "value": "No significant no difference"}]}
